Experimental data from patent US20210355104A1, “ADENOSINE RECEPTOR BINDING COMPOUNDS” (Nikang Therapeuticsm Inc., priority 2018, published 2021).
pIC50: −log10 of the molar value. “And” between values parts separate entries of the source, which are not always exact repeats. Equal values may be shown once.

Biological target: T1, Adenosine A2A receptor (Homo sapiens, UniProt P29274)
Test: Adenosine A2A receptor competitive binding assay (Tag-lite HTRF)
Details: Tag-lite adenosine A2A receptor ligand binding, 2 h room temperature; values separated by / are repeat determinations
Method: Adenosine A2A Receptor Competitive Binding Assay
The Tag-lite adenosine A2A receptor ligand binding assay is a homogeneous alternative to radioligand binding assay and developed by Cisbio (Bedford, Mass.). We carried out this assay following Cisbio's instructions with minor modification. Pre-transfected, fluorescent donor-labelled cells (Cisbio Cat#: C1TT1A2A, 200 testes) was stored at −80° C. and thawed right before use. Cells were washed once with 5 ml TLB and gently resuspended in 2 ml TLB. 4 μl suspended cells was dispensed into each well of white low-volume 384-well plate (Greiner Bio-One). Serial dilutions of compounds were prepared in Tag-lite buffer (TLB, Cisbio Cat #: LABMED) to a DMSO concentration of 0.6%. After adding 4 μl of compound dilutions to each well, 4 μl60 nM Adenosine A2A receptor red antagonist fluorescent ligand (Cisbio Cat #: L0058RED) was dispensed to each well. The 384-well assay plate was centrifuged briefly and incubated at room temperature for 2 h. HTRF signals were measured using CIARIOstar plate reader (BMG Labtech).

T1 sequence (P29274 whole entry): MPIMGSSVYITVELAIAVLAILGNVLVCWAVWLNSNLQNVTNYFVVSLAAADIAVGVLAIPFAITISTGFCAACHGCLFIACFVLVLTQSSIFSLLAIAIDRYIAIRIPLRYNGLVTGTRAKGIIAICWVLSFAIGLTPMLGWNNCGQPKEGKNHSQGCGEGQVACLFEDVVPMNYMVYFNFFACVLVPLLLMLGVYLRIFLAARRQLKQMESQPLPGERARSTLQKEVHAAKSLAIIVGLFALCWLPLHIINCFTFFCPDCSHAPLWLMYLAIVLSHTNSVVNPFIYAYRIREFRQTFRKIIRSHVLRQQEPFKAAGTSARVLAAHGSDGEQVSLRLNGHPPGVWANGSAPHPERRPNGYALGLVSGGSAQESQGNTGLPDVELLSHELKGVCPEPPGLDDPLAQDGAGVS

Compound	pIC50
Cc1cc(-c2c(OCC(=O)NC3CCOCC3)nc(N)nc2-c2ccc(F)cc2)cc(C(F)F)n1 [Example 40, 2-((2-amino-5-(2-(difluoromethyl)-6-methylpyridin-4-yl)-6-(4-fluorophenyl)pyrimidin-4-yl)oxy)-N-(tetrahydro-2H-pyran-4-yl)acetamide]	6.53
Cc1cc(-c2c(OCC(=O)NCCCS(C)(=O)=O)nc(N)nc2-c2ccc(F)cc2)cc(C(F)F)n1 [Example 50, 2-((2-amino-5-(2-(difluoromethyl)-6-methylpyridin-4-yl)-6-(4-fluorophenyl)pyrimidin-4-yl)oxy)-N-(3-(methylsulfonyl)propyl)acetamide]	6.27
CC(=O)N1CCN(c2ccc(CCOc3nc(N)nc(-c4ccccc4)c3-c3cc(C)nc(C(F)(F)F)c3)cc2)CC1 [Example 20, 1-(4-(4-(2-((2-amino-5-(2-methyl-6-(trifluoromethyl)pyridin-4-yl)-6-phenylpyrimidin-4-yl)oxy)ethyl)phenyl)piperazin-1-yl)ethan-1-one]	7.58
Cc1cc(-c2c(C(=O)NCc3cccc(C4CC4)n3)nc(N)nc2-c2ccc(F)cc2)cc(C(F)F)n1 [Example 109]	6.69
Cc1cc(-c2c(OCC3COC3)nc(N)nc2-c2ccc(F)cc2)cc(C(F)F)n1 [Example 37, 5-(2-(difluoromethyl)-6-methylpyridin-4-yl)-4-(4-fluorophenyl)-6-(oxetan-3-ylmethoxy)pyrimidin-2-amine]	7.99
Cc1cc(-c2c(OCCN3CCN(C)CC3)nc(N)nc2-c2ccc(F)cc2)cc(C(F)F)n1 [Example 35, 5-(2-(difluoromethyl)-6-methylpyridin-4-yl)-4-(4-fluorophenyl)-6-(2-(4-methylpiperazin-1-yl)ethoxy)pyrimidin-2-amine]	6.90

Biological target: T1, Adenosine A2A receptor
Test: cAMP assay in 293A cells stably expressing the adenosine A2A receptor (CGS21680 stimulation, HTRF)
Type: cell-based
Design: expressed in transfected cells; host or cells: 293A cells (Invitrogen, Cat# R705-07) infected with A2A-expressing lentivirus (custom packaged by Biosettia), puromycin selected
Details: 293A cells stably expressing A2A receptor; 0.1% BSA; 1 uM CGS21680 stimulation; replicate values separated by /; read-out: cAMP (nM) 0.1% BSA, 1 uM CGS

Compound	IC50 [nM]
Cc1cc(-c2c(OCc3cc(C#N)cc(C(C)(C)O)n3)nc(N)nc2-c2ccc(F)cc2)cc(C(F)F)n1 [Example 435, 2-(((2-amino-5-(2-(difluoromethyl)-6-methylpyridin-4-yl)-6-(4-fluorophenyl)pyrimidin-4-yl)oxy)methyl)-6-(2-hydroxypropan-2-yl)isonicotinonitrile]	506
Cc1cc(-c2c(OCc3nc(NCC(=O)O)cc4ccccc34)nc(N)nc2-c2ccc(F)cc2)cc(C(F)F)n1 [Example 406, (1-(((2-amino-5-(2-(difluoromethyl)-6-methylpyridin-4-yl)-6-(4-fluorophenyl)pyrimidin-4-yl)oxy)methyl)isoquinolin-3-yl)glycine]	719

Same assay, conditions: 293A-A2AR cells, 0.1% BSA, 8 nM CGS; values separated by / are repeat determinations; read-out: cAMP (nM) 0.1% BSA, 8 nM CGS

Compound	IC50
Cc1cc(-c2c(OCCN(C)c3ncccn3)nc(N)nc2-c2ccc(F)cc2)cc(C(F)F)n1 [Example 145, 5-(2-(difluoromethyl)-6-methylpyridin-4-yl)-4-(4-fluorophenyl)-6-(2-(methyl(pyrimidin-2-yl)amino)ethoxy)pyrimidin-2-amine]	0.9 nM and 1.2 nM

Same assay, conditions: 293A-A2AR cells, 0.1% BSA, 1 uM CGS; read-out: cAMP (nM) 0.1% BSA, 1 uM CGS

Compound	IC50
CCN1C(=O)OCC1COc1nc(N)nc(-c2ccc(F)cc2)c1-c1cc(C)nc(C(F)F)c1 (centres unmarked) [Example 235, 4-(((2-amino-5-(2-(difluoromethyl)-6-methylpyridin-4-yl)-6-(4-fluorophenyl)pyrimidin-4-yl)oxy)methyl)-3-ethyloxazolidin-2-one]	3710 nM
Cc1cc(-c2c(OCc3nnn(CC(C)(C)O)n3)nc(N)nc2-c2ccc(F)cc2)cc(C(F)F)n1 [Example 242, 1-(5-(((2-amino-5-(2-(difluoromethyl)-6-methylpyridin-4-yl)-6-(4-fluorophenyl)pyrimidin-4-yl)oxy)methyl)-2H-tetrazol-2-yl)-2-methylpropan-2-ol]	2020 nM
Cc1cc(-c2c(OCCN(C)c3cccc(OCC(=O)O)n3)nc(N)nc2-c2ccc(F)cc2)cc(C(F)F)n1 [Example 248, 2-((6-((2-((2-amino-5-(2-(difluoromethyl)-6-methylpyridin-4-yl)-6-(4-fluorophenyl)pyrimidin-4-yl)oxy)ethyl)(methyl)amino)pyridin-2-yl)oxy)acetic acid]	552 nM and 742 nM and 1100 nM

Continued, values first:

IC50	Compound
16600 nM	Cc1cc(-c2c(-c3cn(Cc4cccc(C(C)(C)O)n4)nn3)nc(N)nc2-c2cccc(C#N)c2C)cc(C(F)F)n1 [Example 312, 3-(2-amino-5-(2-(difluoromethyl)-6-methylpyridin-4-yl)-6-(1-((6-(2-hydroxypropan-2-yl)pyridin-2-yl)methyl)-1H-1,2,3-triazol-4-yl)pyrimidin-4-yl)-2-methylbenzonitrile]
681 nM	Cc1cc(-c2c(OCCOc3cccc(CO)n3)nc(N)nc2-c2ccc(F)cc2)cc(C(F)F)n1 [Example 304, (6-(2-((2-amino-5-(2-(difluoromethyl)-6-methylpyridin-4-yl)-6-(4-fluorophenyl)pyrimidin-4-yl)oxy)ethoxy)pyridin-2-yl)methanol]
7660 nM	Cc1cc(-c2c(OCc3ccn(C(C)(C)C(=O)O)n3)nc(N)nc2-c2ccc(F)cc2)cc(C(F)F)n1 [Example 388, 2-(3-(((2-amino-5-(2-(difluoromethyl)-6-methylpyridin-4-yl)-6-(4-fluorophenyl)pyrimidin-4-yl)oxy)methyl)-1H-pyrazol-1-yl)-2-methylpropanoic acid]
> 25000 nM	Cc1cc(-c2c(OCCn3cccc(C(=O)O)c3=O)nc(N)nc2-c2ccc(F)cc2)cc(C(F)F)n1 [Example 335, 1-(2-((2-amino-5-(2-(difluoromethyl)-6-methylpyridin-4-yl)-6-(4-fluorophenyl)pyrimidin-4-yl)oxy)ethyl)-2-oxo-1,2-dihydropyridine-3-carboxylic acid]
835 nM	Cc1cc(-c2c(OCc3ccnc(C(C)(C)O)c3)nc(N)nc2-c2ccc(F)cc2)cc(C(F)F)n1 [Example 287, 2-(4-(((2-amino-5-(2-(difluoromethyl)-6-methylpyridin-4-yl)-6-(4-fluorophenyl)pyrimidin-4-yl)oxy)methyl)pyridin-2-yl)propan-2-ol]
2890 nM	Cc1cc(-c2c(OCc3cccc(OCCC(C)(C)C(=O)O)n3)nc(N)nc2-c2ccc(F)cc2)cc(C(F)F)n1 [Example 338, 4-((6-(((2-amino-5-(2-(difluoromethyl)-6-methylpyridin-4-yl)-6-(4-fluorophenyl)pyrimidin-4-yl)oxy)methyl)pyridin-2-yl)oxy)-2,2-dimethylbutanoic acid]
133 nM and 209 nM and 375 nM and 142 nM and 48 nM	Cc1cc(-c2c(OCc3cccc(N)n3)nc(N)nc2-c2ccc(F)cc2)cc(C(F)F)n1 [Example 376]
211 nM and 246 nM	Cc1cc(-c2c(OCc3ccnc(N(C)C)n3)nc(N)nc2-c2ccc(F)cc2)cc(C(F)F)n1 [Example 307, 4-(((2-amino-5-(2-(difluoromethyl)-6-methylpyridin-4-yl)-6-(4-fluorophenyl)pyrimidin-4-yl)oxy)methyl)-N,N-dimethylpyrimidin-2-amine]
955 nM	Cc1cc(-c2c(OCc3cc4ccccc4cn3)nc(N)nc2-c2ccc(F)cc2)cc(C(F)F)n1 [Example 382, 5-(2-(difluoromethyl)-6-methylpyridin-4-yl)-4-(4-fluorophenyl)-6-(isoquinolin-3-ylmethoxy)pyrimidin-2-amine]
> 25000 nM	CCn1c(COc2nc(N)nc(-c3ccc(F)cc3)c2-c2cc(C)nc(C(F)F)c2)nc2ccc(C(C)(C)C(=O)O)nc21 [Example 365, 2-(2-(((2-amino-5-(2-(difluoromethyl)-6-methylpyridin-4-yl)-6-(4-fluorophenyl)pyrimidin-4-yl)oxy)methyl)-3-ethyl-3H-imidazo[4,5-b]pyridin-5-yl)-2-methylpropanoic acid]

Same assay, conditions: 293A-A2AR cells, 0.1% BSA, 1 uM CGS; values separated by / are repeat determinations; read-out: cAMP (nM) 0.1% BSA, 1 uM CGS

Compound	IC50 [nM]
Cc1cc(-c2c(OCCN(C)c3ncccn3)nc(N)nc2-c2ccc(F)cc2)cc(C(F)F)n1 [Example 145, 5-(2-(difluoromethyl)-6-methylpyridin-4-yl)-4-(4-fluorophenyl)-6-(2-(methyl(pyrimidin-2-yl)amino)ethoxy)pyrimidin-2-amine]	123
